Molecules are shown by their SMILES.

Data set [1] has as its system eggs from the tobacco budworm (Heliotis virescens). Put plainly: Heliothis virescens test (spray treatment). The format is in vivo. The following applies: application rate 500 g/ha, spray on soybean leaves, after 7 days. The procedure:
• 78.0 parts by weight of acetone • 1.5 parts by weight of dimethylformamide Emulsifier: 0.5 part by weight of alkylaryl polyglycol ether
To produce a suitable preparation of active compound, 1 part by weight of active compound is mixed with the stated amounts of solvents and emulsifier, and the concentrate is diluted with emulsifier-containing water to the desired concentration. Soybean leaves (Glycine max.) are sprayed with an active compound preparation of the desired concentration and populated with eggs from the tobacco budworm (Heliotis virescens). After 7 days, the effect in % is determined. 100% means that all eggs have been killed, 0% means that no eggs have been killed.

For the molecule `CC(C)(C)n1ncc(O)c(-c2ccc(Cl)cc2Cl)c1=O` [I-1-a-5], the “effect in % (eggs killed)” value in data set [1] was “at least 80%”.
The term melting point denotes the temperature of the solid-liquid transition. With `COc1cnn(C)c(=O)c1-c1ccc(Cl)c(Cl)c1` [I-1-h-1, 4-(3,4-dichlorophenyl)-5-methoxy-2-methyl-3(2H)-pyridazinone], the melting point was 176 °C.

The values are drawn from patent publication US20110003692A1, “HERBICIDALLY AND INSECTICIDALLY ACTIVE PHENYL-SUBSTITUTED PYRIDAZINONES” (BAYER CROPSCIENCE AG, priority 2008, published 2011).
